Results: patent US20250140406A1, “CLASSIFYING TUMORS AND PREDICTING RESPONSIVENESS” (Oncocyte Corporation, priority 2022, published 2025)
Like-named read-outs stand apart in the source and are kept apart here.

Key:
[1] = tested on: cancer cell lines, DetermaIO classes; test: Association of PRISM compound sensitivity with DetermaIO (DTIO) cell line classes; assay type: cell-based
[2] = tested on: cancer cell lines classified IM, MSL, M; test: PRISM screen compound sensitivity correlated with IM, MSL and M subtype of cell lines (101 gene signature); assay type: cell-based; details: for TNBCType test: test data set
[3] = correlation of PRISM compound sensitivity with DTIO (DetermaIO), test cell set (188 cell lines)
[4] = correlation of PRISM compound sensitivity with DTIO (DetermaIO), training cell set (371 cell lines)
[5] = correlation of PRISM compound sensitivity with IM subtype correlation, test cell set (188 cell lines)
[6] = correlation of PRISM compound sensitivity with M subtype correlation, test cell set (188 cell lines)
[7] = correlation of PRISM compound sensitivity with MSL subtype correlation, test cell set (188 cell lines)
[8] = association of compound sensitivity with DetermaIO classes, test data set
[9] = association of compound sensitivity with DetermaIO classes, training data set
[10] = classification of association of compound sensitivity with IM, MSL and M cell line classes
[11] = classification of association of compound sensitivity with IM, MSL and M cell line classes, training data set
[12] = subtype (IM, MSL or M) assigned to the compound by negative correlation of PRISM sensitivity with subtype, training cell set (371 cell lines), 101 gene signature
[13] = correlation of PRISM compound sensitivity with DTIO, test cell set
[14] = correlation of PRISM compound sensitivity with DTIO, training cell set
[15] = correlation of PRISM compound sensitivity with IM subtype correlation, test cell set
[16] = correlation of PRISM compound sensitivity with M subtype correlation, test cell set
[17] = correlation of PRISM compound sensitivity with MSL subtype correlation, test cell set
[18] = correlation of PRISM compound sensitivity with DTIO, test cell set (188 cell lines)
[19] = correlation of PRISM compound sensitivity with DTIO, training cell set (371 cell lines)
[20] = correlation of compound sensitivity with DTIO, test set
[21] = correlation of compound sensitivity with DTIO, training set

Row | SMILES | DTIO Corr test [1, 3] | DTIO Corr train [1, 4] | IM Corr test [2, 5] | M Corr test [2, 6] | MSL Corr test [2, 7] | DTIO Corr test [1, 13] | DTIO Corr train [1, 14] | further results
1 | O=c1[nH]cnc2ccccc12 [4-HQN] | 0.05447 | −0.1475 | −0.06704 | 0.04595 | 0.1063 |  |  | 
2 | COc1cc(-c2ccc(=O)[nH]n2)ccc1OC(F)F [K37561857] |  |  |  |  |  |  |  | DTIO Corr test [1, 8]: 0.1699; DTIO Corr train [1, 9]: 0.1782; TNBCType test [2, 10]: MSL
3 | O=C(O)C[C@H](O)C[C@H](O)/C=C/c1c(C2CC2)nc2ccccc2c1-c1ccc(F)cc1 [K75958547] |  |  |  |  |  |  |  | DTIO Corr test [1, 8]: −0.0837; DTIO Corr train [1, 9]: −0.04476; TNBCType train [2, 11]: MSL
4 | OCCN1CCN(CC/C=C2/c3ccccc3Sc3ccc(C(F)(F)F)cc32)CC1 [flupentixol] | −0.04775 | −0.1041 | −0.05449 | 0.1086 | 0.1536 |  |  | 
5 | CC[C@H](C)C(=O)O[C@H]1CCC=C2C=C[C@H](C)[C@H](CC[C@@H]3C[C@@H](O)CC(=O)O3)[C@H]21 [K94441233] |  |  |  |  |  |  |  | DTIO Corr test [1, 8]: −0.09323; DTIO Corr train [1, 9]: −0.00119; TNBCType test [2, 10]: MSL; TNBCType train [2, 11]: MSL
6 | [O-][n+]1cccc(CO)c1 [mepiroxol] | −0.08258 | −0.1082 | −0.07855 | 0.0253 | 0.01789 |  |  | 
7 | C[C@@]1(O)[C@H](O)[C@@H](CO)O[C@H]1n1cnc2c(NC3CCCC3)nc(Cl)nc21 [2′-MeCCPA] | −0.0753 | −0.01341 | −0.06271 | 0.03452 | −0.04413 |  |  | TNBCType train [2, 12]: MSL
8 | O=C(O)CCCN1C(=O)c2cccc3cccc(c23)C1=O [isodibut] | −0.0652 | 0.05075 | −0.04572 | −0.03436 | −0.1039 |  |  | TNBCType train [2, 12]: MSL
9 | CN[C@@H]1C[C@H]2O[C@@](C)([C@@H]1OC)n1c3ccccc3c3c4c(c5c6ccccc6n2c5c31)C(=O)N[C@H]4O [7-hydroxystaurosporine] |  |  |  |  |  | −0.07646 | −0.1515 | IM Corr test [2, 15]: −0.06588; M Corr test [2, 16]: 0.06924; MSL Corr test [2, 17]: 0.09088
10 | COc1cc2ncnc(Sc3nnc(C)s3)c2cc1OC [SKLB1002] |  |  |  |  |  | 0.03788 | 0.02384 | IM Corr test [2, 15]: 0.0147; M Corr test [2, 16]: −0.00342; MSL Corr test [2, 17]: −0.05424; TNBCType train ([2]; subtype (IM, MSL or M) with which PRISM compound sensitivity is negatively correlated, training cell set, 101 gene signature): MSL
11 | Cc1nc(C)c(-c2ccc(C3CCC(CC(=O)O)CC3)cc2)nc1C(N)=O (centres unmarked) [AZD7687] |  |  |  |  |  | −0.03167 | −0.02143 | IM Corr test [2, 15]: −0.05809; M Corr test [2, 16]: 0.08898; MSL Corr test [2, 17]: 0.08286
12 | O=C1[C@H](Cc2ccc(O)cc2)N2C(=O)CCN(C(=O)NCc3ccccc3)[C@H]2CN1Cc1cccc2ccccc12 [ICG-001] |  |  | 0.1415 | −0.2223 | 0.01929 |  |  | DTIO Corr test [1, 18]: 0.1635; DTIO Corr train [1, 19]: 0.1783; DTIO Corr test [1, 20]: 0.1635; DTIO Corr train [1, 21]: 0.1783
13 | CCCN(CCC)[C@@H]1CCc2c(OC)cccc2[C@@H]1C [UH-232-(+)] | −0.1146 | −0.08225 | −0.1006 | 0.08495 | 0.1169 |  |  | 
14 | Nc1nc(-c2ccc(Cl)c(Cl)c2)c(-c2ccncc2)s1 [CGH2466] | −0.01803 | −0.09319 | −0.07415 | 0.03776 | 0.04331 |  |  | 
15 | O=C(O)/C=C1\CCCc2ccccc2C1O (centres unmarked) [NCS-382] |  |  | −0.09394 | 0.1059 | 0.05928 | −0.1705 | −0.1343 | 
16 | Cc1cc(C)cc(C(=O)N(C)[C@H](Cc2ccc(-c3ccccc3)cc2)C(=O)N[C@@H](Cc2c[nH]c3ccccc23)C(=O)O)c1 [IRL-2500] |  |  | −0.01191 | 0.007861 | −0.1214 |  |  | DTIO Corr test [1, 18]: 0.02691; DTIO Corr train [1, 19]: −0.06473
17 | CNC(C)CCC=C(C)C.CNC(C)CCC=C(C)C.O=C(O)[C@@H](O)[C@H](O)[C@H](O)[C@@H](O)C(=O)O [isometheptene-mucate] |  |  | −0.09289 | 0.05313 | 0.118 | −0.04443 | −0.1179 | 
18 | COc1cc(/C=C/c2ccc(O)cc2)cc(OC)c1 [pterostilbene] |  |  |  |  |  |  |  | DTIO Corr test [1]: −0.06647; DTIO Corr train [1]: −0.0588; IM Corr test [2]: −0.08513; M Corr test [2]: 0.06063; MSL Corr test [2]: −0.05713
19 | O=C(Nc1ccc(C(F)(F)F)cn1)N1CCN(c2ncccc2C(F)(F)F)CC1 [JNJ-17203212] |  |  |  |  |  | −0.00666 | −0.1037 | IM Corr test [2, 15]: −0.03139; M Corr test [2, 16]: 0.03655; MSL Corr test [2, 17]: 0.142
20 | COc1cc2ncnc(Nc3cccc(Br)c3)c2cc1OC [PD-153035] |  |  |  |  |  | −0.03709 | −0.1232 | DTIO Corr test [1, 20]: −0.03709; DTIO Corr train [1, 21]: −0.1232; IM Corr test [2, 15]: −0.1533; M Corr test [2, 16]: 0.2905; MSL Corr test [2, 17]: 0.3911
21 | N[C@@H]1CCCN(c2c(/C=C3\SC(=O)NC3=O)cccc2-c2ccccc2)C1 [AZD1208] |  |  |  |  |  | 0.02868 | 0.03472 | IM Corr test [2, 15]: 0.06359; M Corr test [2, 16]: −0.02916; MSL Corr test [2, 17]: 0.004575
